Results as given in publication PMC8620910, “Design and Synthesis of (2-oxo-1,2-Dihydroquinolin-4-yl)-1,2,3-triazole Derivatives via Click Reaction: Potential Apoptotic Antiproliferative Agents” (Molecules, 2021).

How the values were obtained:
[1] = system: A-549, MCF-7, Panc-1 and HT-29 cell lines; experiment: Average anti-proliferative IC50 over the four cancer cell lines; type: cell-based, human; conditions: for IC50: Homo sapiens, average of A-549, MCF-7, Panc-1, HT-29; for fold decrease in activity relative to 8c: from average IC50
Procedure: (§1) Tested 8a–l compounds were assessed for their anti-proliferative activity against four human cancer cell lines, including the pancreatic cancer cell line (Panc-1), breast cancer cell line (MCF-7), colon cancer cell line (HT-29), and epithelial cancer cell line (A-549) using propidium iodide fluorescence assay and the reference doxorubicin.
(§2) To explore the anti-proliferative potential of compounds, propidium iodide fluorescence assay was performed using different cell lines such as Panc-1 (pancreas cancer cell line), MCF-7 (breast cancer cell line), HT-29 (colon cancer cell line), and A-549 (epithelial cancer cell line), respectively. To calculate the total nuclear DNA, a fluorescent dye (propidium iodide, PI) is used to attach to the DNA, thus offering a quick and precise technique. PI cannot pass through the cell membrane, and its signal intensity can be considered as directly proportional to the quantity of cellular DNA. Cells whose cell membranes are damaged or have changed permeability are counted as dead ones. The assay was performed by seeding the cells of different cell lines at a density of 3000–7500 cells/well (in 200 μL medium) in culture plates followed by incubation for 24 h at 37 °C in humidified 5%CO2/95% air atmospheric conditions. The medium was removed; the compounds were added to the plates at 10 μM concentrations (in 0.1% DMSO) in triplicates, followed by incubation for 48h. DMSO (0.1%) was used as a control. After incubation, the medium was removed, followed by the addition of PI (25 μL, 50 μg/mL in water/medium) to each well of the plates. At −80 °C, the plates were allowed to freeze for 24 h, followed by thawing at 25 °C. A fluorometer (Polar-Star BMG Tech, Beijing, China) was used to record the readings at excitation and emission wavelengths of 530 and 620 nm for each well. The percentage cytotoxicity of compounds was calculated using the following formula: % Cytotoxicity=AC−ATC/AC×100 where ATC = absorbance of treated cells and AC = absorbance of control. Doxorubicin was used as a positive control in the assay.

[2] = system: epithelial cancer cell line (A-549); experiment: Anti-proliferative propidium iodide fluorescence assay, A-549; type: cell-based; conditions: Homo sapiens, A549; read-out: Anti-Proliferative Activity IC50 ± SEM, A-549
Procedure: as §1, with “doxorubicin. Results (IC50) are illustrated in Table 3.” for “doxorubicin.”
as §2

[3] = system: colon cancer cell line (HT-29); experiment: Anti-proliferative propidium iodide fluorescence assay, HT-29; type: cell-based; conditions: Homo sapiens, read-out: Anti-Proliferative Activity IC50 ± SEM, HT-29
Procedure: as §1, with “doxorubicin. Results (IC50) are illustrated in Table 3.” for “doxorubicin.”
as §2

[4] = Cell viability assay (MTT) on MCF-10A; type: cell-based; conditions: human, MCF-10A mammary epithelial cells, four days
Procedure: A human mammary gland epithelial cell line was used in the cell viability assay (MCF-10A). MCF-10A cells were incubated with compounds 8a–l for four days, and cell viability was determined using an MTT assay.
An MTT assay was performed to investigate the effect of the synthesized compounds on mammary epithelial cells (MCF-10A) at a concentration of 50 µM for the tested compound. The cells were propagated in a medium consisting of Ham’s F-12 medium/Dulbecco’s modified Eagle’s medium (DMEM) (1:1) supplemented with 10% fetal calf serum, 2 mM glutamine, insulin (10 μg/mL), hydrocortisone (500 ng/mL), and epidermal growth factor (20 ng/mL). Trypsin ethylenediamine tetra acetic acid (EDTA) was used to pass the cells every 2–3 days. Ninety-six-well flat-bottomed cell culture plates were used to seed the cells at a density of 10^4 cells mL^−1. The medium was aspirated from all the wells of culture plates after 24 h followed by the addition of synthesized compounds (in 200 μL medium to yield a final concentration of 0.1% (v/v) dimethylsulfoxide) into individual wells of the plates. Four wells were designated to a single compound. The plates were allowed to incubate at 37 °C for 96 h. Afterward, the medium was aspirated, and 3-[4,5-dimethylthiazol-2-yl]-2,5-diphenyltetrazolium bromide (MTT) (0.4 mg/mL) in the medium was added to each well and subsequently incubated for 3 h. The medium was aspirated, and 150 μL dimethyl sulfoxide (DMSO) was added to each well. The plates were vortexed, followed by the measurement of absorbance at 540 nm on a microplate reader. The results were presented as inhibition (%) of proliferation compared to controls comprising 0.1% DMSO.

[5] = system: pancreatic cancer cell line (Panc-1); experiment: Anti-proliferative propidium iodide fluorescence assay, Panc-1; type: cell-based; conditions: Homo sapiens, read-out: Anti-Proliferative Activity IC50 ± SEM, Panc-1
Procedure: as §1, with “doxorubicin. Results (IC50) are illustrated in Table 3.” for “doxorubicin.”
as §2

[6] = system: breast cancer cell line (MCF-7); experiment: Anti-proliferative propidium iodide fluorescence assay, MCF-7; type: cell-based; conditions: Homo sapiens, MCF7; read-out: Anti-Proliferative Activity IC50 ± SEM, MCF-7
Procedure: as §1, with “doxorubicin. Results (IC50) are illustrated in Table 3.” for “doxorubicin.”
as §2

active Caspase 3 = experiment: Caspase 3 activation assay in MCF-7
Procedure: All reagents were allowed to reach room temperature before use. All liquid reagents were gently mixed before use. The number of 8-well strips needed for the assay was determined. These were inserted into the frame(s) for current use. A total of 100 μL of the Standard Diluent Buffer was added to the zero standard wells. Well(s) reserved for chromogen blank were left empty. A total of 100 μL of standards and controls or diluted samples was added to the appropriate microtiter wells. The sample dilution chosen was optimized for each experimental system. The side of the plate was gently tapped on to mix. Wells were covered with a plate cover and incubated for 2 h at room temperature. […]
The working dilution was prepared as described in Preparing IgG HRP. […] The incubation time for chromogen substrate was determined by the microtiter plate reader used.
Many plate readers have the capacity to record a maximum optical density (O.D.) of 2.0. The O.D. values were monitored, and the substrate reaction was stopped before the O.D. of the positive wells exceeds the limits of the instrument. The O.D. values at 450 nm could only be read after the Stop Solution had been added to each well. […] The absorbance of each well was read at 450 nm, having blanked the plate reader against a chromogen blank composed of 100 μL each of Stabilized Chromogen and Stop Solution. […]

| IC50 [1] | IC50 [2] | IC50 [3] | IC50 [5] | IC50 [6] | fold reduction of the average IC50 value relative to 8a ([1]; replacement of NH by N-CH3) | SMILES | fold decrease in activity relative to 8c [1] | viability at 96 h, 50 µM [4] | Caspase 3 Conc (active Caspase 3; MCF-7) | Caspase 3 Fold Change (active Caspase 3; MCF-7, versus untreated control) |
| --- | --- | --- | --- | --- | --- | --- | --- | --- | --- | --- |
| 5.58 µM | 5.7 ± 0.4 µM | 5.7 ± 0.4 µM | 5.6 ± 0.6 µM | 5.3 ± 0.8 µM |  | O=c1cc(-n2cc(COc3ccc(C(c4c(O)c5ccccc5[nH]c4=O)c4c(O)c5ccccc5[nH]c4=O)cc3)nn2)c2ccccc2[nH]1 [Compound 8a, 3,3’-((4-((1-(2-oxo-1,2-dihydroquinolin-4-yl)-1H-1,2,3-triazol-4-yl)methoxy)phenyl)-methylene)bis(4-hydroxyquinolin-2(1H)-one)] | 1.5 fold | 89% |  |  |
| 7.4 µM | 7.6 ± 0.8 µM | 7.5 ± 0.4 µM | 7.6 ± 0.6 µM | 6.9 ± 0.8 µM |  | Cc1ccc2[nH]c(=O)cc(-n3cc(COc4ccc(C(c5c(O)c6ccccc6[nH]c5=O)c5c(O)c6ccccc6[nH]c5=O)cc4)nn3)c2c1 [Compound 8b, 3,3’-((4-((1-(6-Methyl-2-oxo-1,2-dihydroquinolin-4-yl)-1H-1,2,3-triazol-4-yl)methoxy)phenyl)methylene)bis(4-hydroxyquinolin-2(1H)-one)] | 2 fold | 87% |  |  |
| 3.85 µM | 3.9 ± 0.5 µM | 4.2 ± 0.2 µM | 4.1 ± 0.2 µM | 3.2 ± 0.08 µM |  | COc1ccc2[nH]c(=O)cc(-n3cc(COc4ccc(C(c5c(O)c6ccccc6[nH]c5=O)c5c(O)c6ccccc6[nH]c5=O)cc4)nn3)c2c1 [Compound 8c, 3,3’-((4-((1-(6-Methoxy-2-oxo-1,2-dihydroquinolin-4-yl)-1H-1,2,3-triazol-4-yl)methoxy)phenyl)methylene)bis(4-hydroxyquinolin-2(1H)-one)] |  | 91% |  |  |
| 11.8 µM | 12.9 ± 0.8 µM | 11.4 ± 1.2 µM | 11.6 ± 0.8 µM | 11.5 ± 1.1 µM |  | Cn1c(=O)cc(-n2cc(COc3ccc(C(c4c(O)c5ccccc5[nH]c4=O)c4c(O)c5ccccc5[nH]c4=O)cc3)nn2)c2ccccc21 [Compound 8d, 3,3’-((4-((1-(1-Methly-2-oxo-1,2-dihydroquinolin-4-yl)-1H-1,2,3-triazol-4-yl)methoxy)phenyl)methylene)bis(4-hydroxyquinolin-2(1H)-one)] |  | 89% |  |  |
| 3 µM | 2.9 ± 0.5 µM | 3.4 ± 0.2 µM | 3.1 ± 0.2 µM | 2.6 ± 0.8 µM |  | COc1ccc2[nH]c(=O)c(C(c3ccc(OCc4cn(-c5cc(=O)[nH]c6ccc(C)cc56)nn4)cc3)c3c(O)c4cc(OC)ccc4[nH]c3=O)c(O)c2c1 [Compound 8f, 3,3’-((4-((1-(6-Methyl-2-oxo-1,2-dihydroquinolin-4-yl)-1H-1,2,3-triazol-4-yl)methoxy)phenyl)methylene)bis(4-hydroxy-6-methoxyquinolin-2(1H)-one)] |  | 87% | 365.60 ± 3.20 pg/mL | 5.57 fold |
| 10.7 µM | 10.7 ± 2.5 µM | 10.8 ± 1.6 µM | 10.8 ± 1.9 µM | 10.6 ± 2.9 µM |  | COc1ccc2[nH]c(=O)c(C(c3ccc(OCc4cn(-c5cc(=O)n(C)c6ccccc56)nn4)cc3)c3c(O)c4cc(OC)ccc4[nH]c3=O)c(O)c2c1 [Compound 8h, 3,3’-((4-((1-(1-Methly-2-oxo-1,2-dihydroquinolin-4-yl)-1H-1,2,3-triazol-4-yl)methoxy)phenyl)methylene)bis(4-hydroxy-6-methoxyquinolin-2(1H)-one)] |  | 90% |  |  |
| 17.8 µM | 17.9 ± 0.3 µM | 17.9 ± 1.1 µM | 17.6 ± 1.5 µM | 17.8 ± 1.6 µM |  | Cn1c(=O)c(C(c2ccc(OCc3cn(-c4cc(=O)[nH]c5ccccc45)nn3)cc2)c2c(O)c3ccccc3n(C)c2=O)c(O)c2ccccc21 [Compound 8i, 3,3’-((4-((1-(2-oxo-1,2-dihydroquinolin-4-yl)-1H-1,2,3-triazol-4-yl)methoxy)phenyl)-methylene)bis(4-hydroxy-1-methylquinolin-2(1H)-one)] |  | 90% |  |  |
| 22.5 µM | 22.5 ± 0.2 µM | 22.9 ± 0.6 µM | 22.4 ± 0.2 µM | 22.1 ± 0.1 µM |  | Cc1ccc2[nH]c(=O)cc(-n3cc(COc4ccc(C(c5c(O)c6ccccc6n(C)c5=O)c5c(O)c6ccccc6n(C)c5=O)cc4)nn3)c2c1 [Compound 8j, 3,3’-((4-((1-(6-Methyl-2-oxo-1,2-dihydroquinolin-4-yl)-1H-1,2,3-triazol-4-yl)methoxy)phenyl)methylene)bis(4-hydroxy-1-methylquinolin-2(1H)-one)] |  | 81% |  |  |
| 14.4 µM | 14.5 ± 2.6 µM | 14.8 ± 1.4 µM | 14.6 ± 2.9 µM | 13.6 ± 2.2 µM |  | COc1ccc2[nH]c(=O)cc(-n3cc(COc4ccc(C(c5c(O)c6ccccc6n(C)c5=O)c5c(O)c6ccccc6n(C)c5=O)cc4)nn3)c2c1 [Compound 8k] |  | 90% |  |  |
| 24.7 µM | 25.3 ± 2.5 µM | 24.2 ± 1.4 µM | 24.5 ± 2.3 µM | 24.9 ± 1.8 µM | at least 4 fold | Cn1c(=O)cc(-n2cc(COc3ccc(C(c4c(O)c5ccccc5n(C)c4=O)c4c(O)c5ccccc5n(C)c4=O)cc3)nn2)c2ccccc21 [Compound 8l, 3,3’-((4-((1-(1-Methyl-2-oxo-1,2-dihydroquinolin-4-yl)-1H-1,2,3-triazol-4-yl)methoxy)phenyl)methylene)bis(4-hydroxy-1-methylquinolin-2(1H)-one)] |  | 96% |  |  |
